Tests used:
[1] = akkermansia muciniphila, 12 h, 2 µM
Description: The drug is tested on Akkermansia muciniphila strain: ATCC BAA-835 for biotransformation. The drug concentrations were measured before and after a 12-h incubation by liquid-chromatography-coupled mass spectrometry (LC–MS)

[2] = bacteroides eggerthii, 12 h, 2 µM
Description: The drug is tested on Bacteroides eggerthii strain: DSM20697 for biotransformation. The drug concentrations were measured before and after a 12-h incubation by liquid-chromatography-coupled mass spectrometry (LC–MS)

[3] = The drug is tested on Enterococcus faecalis strain: V583 for biotransformation. The drug concentrations were measured before and after a 12-h incubation by liquid-chromatography-coupled mass spectrometry (LC–MS); details: 2 µM
[4] = The drug is tested on Bacteroides cellulosilyticus strain: DSM14838 for biotransformation. The drug concentrations were measured before and after a 12-h incubation by liquid-chromatography-coupled mass spectrometry (LC–MS); details: 2 µM
[5] = The drug is tested on Eubacterium ventriosum strain: ATCC27560 for biotransformation. The drug concentrations were measured before and after a 12-h incubation by liquid-chromatography-coupled mass spectrometry (LC–MS); assay type: ADME; parameters: dose 2 uM, timepoint 0 vs 12 hours; details: 2 µM
[6] = The drug is tested on Bacteroides dorei strain: DSM17855 for biotransformation. The drug concentrations were measured before and after a 12-h incubation by liquid-chromatography-coupled mass spectrometry (LC–MS); details: phocaeicola dorei, 2 µM
[7] = The drug is tested on Clostridium symbiosum strain: ATCC14940 for biotransformation. The drug concentrations were measured before and after a 12-h incubation by liquid-chromatography-coupled mass spectrometry (LC–MS); details: 2 µM
[8] = The drug is tested on Blautia luti strain: DSM14534 for biotransformation. The drug concentrations were measured before and after a 12-h incubation by liquid-chromatography-coupled mass spectrometry (LC–MS); assay type: ADME; parameters: dose 2 uM, timepoint 0 vs 12 hours; details: 2 µM
[9] = The drug is tested on Bacteroides sp. WH2 strain: WH2 for biotransformation. The drug concentrations were measured before and after a 12-h incubation by liquid-chromatography-coupled mass spectrometry (LC–MS); details: bacteroides sp. wh2, 12 h, 2 µM
[10] = The drug is tested on Coprococcus comes strain: ATCC27758 for biotransformation. The drug concentrations were measured before and after a 12-h incubation by liquid-chromatography-coupled mass spectrometry (LC–MS); assay type: ADME; parameters: dose 2 uM, timepoint 0 vs 12 hours; details: 2 µM
[11] = The drug is tested on Bacteroides coprophilus strain: DSM18228 for biotransformation. The drug concentrations were measured before and after a 12-h incubation by liquid-chromatography-coupled mass spectrometry (LC–MS); details: 2 µM
[12] = The drug is tested on Ruminococcus torques strain: ATCC27756 for biotransformation. The drug concentrations were measured before and after a 12-h incubation by liquid-chromatography-coupled mass spectrometry (LC–MS); assay type: ADME; parameters: dose 2 uM, timepoint 0 vs 12 hours; details: 2 µM
[13] = bacteroides thetaiotaomicron, 12 h, 2 µM
Description: The drug is tested on Bacteroides thetaiotaomicron strain: 7330 for biotransformation. The drug concentrations were measured before and after a 12-h incubation by liquid-chromatography-coupled mass spectrometry (LC–MS)

[14] = The drug is tested on Providencia rettgeri strain: DSM1131 for biotransformation. The drug concentrations were measured before and after a 12-h incubation by liquid-chromatography-coupled mass spectrometry (LC–MS); assay type: ADME; parameters: dose 2 uM, timepoint 0 vs 12 hours; details: 2 µM
[15] = The drug is tested on Clostridium ramosum strain: DSM1402 for biotransformation. The drug concentrations were measured before and after a 12-h incubation by liquid-chromatography-coupled mass spectrometry (LC–MS); details: thomasclavelia ramosa, 2 µM
[16] = The drug is tested on Bacteroides xylanisolvens strain: DSM18836 for biotransformation. The drug concentrations were measured before and after a 12-h incubation by liquid-chromatography-coupled mass spectrometry (LC–MS); details: 2 µM
[17] = The drug is tested on Bacteroides ovatus strain: ATCC8483 for biotransformation. The drug concentrations were measured before and after a 12-h incubation by liquid-chromatography-coupled mass spectrometry (LC–MS); details: 2 µM
[18] = The drug is tested on Edwardsiella tarda strain: ATCC23685 for biotransformation. The drug concentrations were measured before and after a 12-h incubation by liquid-chromatography-coupled mass spectrometry (LC–MS); details: 2 µM
[19] = The drug is tested on Eggerthella lenta strain: ATCC25559 for biotransformation. The drug concentrations were measured before and after a 12-h incubation by liquid-chromatography-coupled mass spectrometry (LC–MS); details: 2 µM
[20] = The drug is tested on Bacteroides fragilis strain: ATCC43859 for biotransformation. The drug concentrations were measured before and after a 12-h incubation by liquid-chromatography-coupled mass spectrometry (LC–MS); details: 2 µM

Compound | Bacterial Biotransformation [1] | Bacterial Biotransformation [2] | Bacterial Biotransformation [3] | Bacterial Biotransformation [4] | Bacterial Biotransformation [5] | Bacterial Biotransformation [6] | Bacterial Biotransformation [7] | Bacterial Biotransformation [8] | Bacterial Biotransformation [9] | Bacterial Biotransformation [10] | Bacterial Biotransformation [11] | Bacterial Biotransformation [12] | Bacterial Biotransformation [13] | Bacterial Biotransformation [14] | Bacterial Biotransformation [15] | Bacterial Biotransformation [16] | Bacterial Biotransformation [17] | Bacterial Biotransformation [18] | Bacterial Biotransformation [19] | Bacterial Biotransformation [20]
CCCC(=O)Nc1ccc(OCC(O)CNC(C)C)c(C(C)=O)c1 (centres undefined) [ACEBUTOLOL] | Compound NOT metabolized | Compound NOT metabolized | Compound NOT metabolized | Compound NOT metabolized | Compound NOT metabolized | Compound NOT metabolized | Compound NOT metabolized | Compound NOT metabolized | Compound NOT metabolized | Compound NOT metabolized | Compound NOT metabolized | Compound NOT metabolized | Compound NOT metabolized | Compound NOT metabolized | Compound NOT metabolized | Compound NOT metabolized | Compound NOT metabolized | Compound NOT metabolized | Compound NOT metabolized | –
CCN1CCCC1CNC(=O)c1cc(S(=O)(=O)CC)c(N)cc1OC (centres undefined) [AMISULPRIDE] | Compound NOT metabolized | Compound NOT metabolized | Compound NOT metabolized | Compound NOT metabolized | Compound NOT metabolized | Compound NOT metabolized | Compound NOT metabolized | Compound NOT metabolized | Compound NOT metabolized | Compound NOT metabolized | Compound NOT metabolized | Compound NOT metabolized | Compound NOT metabolized | Compound NOT metabolized | Compound NOT metabolized | Compound NOT metabolized | Compound NOT metabolized | Compound NOT metabolized | Compound NOT metabolized | –
OC(CCN1CCCCC1)(c1ccccc1)C1CC2C=CC1C2 (centres undefined) [BIPERIDEN] | Compound NOT metabolized | Compound NOT metabolized | Compound NOT metabolized | Compound NOT metabolized | Compound NOT metabolized | Compound NOT metabolized | Compound NOT metabolized | Compound NOT metabolized | Compound NOT metabolized | Compound NOT metabolized | Compound NOT metabolized | Compound NOT metabolized | Compound NOT metabolized | Compound NOT metabolized | Compound NOT metabolized | – | Compound NOT metabolized | Compound NOT metabolized | Compound NOT metabolized | –
CC(C)C[C@H]1C(=O)N2CCC[C@H]2[C@]2(O)O[C@](NC(=O)[C@@H]3C=C4c5cccc6[nH]c(Br)c(c56)C[C@H]4N(C)C3)(C(C)C)C(=O)N12.CS(=O)(=O)O [BROMOCRIPTINE MESYLATE] | Compound metabolized | Compound metabolized | – | Compound metabolized | Compound metabolized | Compound metabolized | Compound metabolized | Compound metabolized | Compound metabolized | – | Compound metabolized | Compound metabolized | Compound metabolized | Compound metabolized | Compound metabolized | Compound metabolized | Compound metabolized | Compound metabolized | Compound metabolized | –
CC(NC(C)(C)C)C(=O)c1cccc(Cl)c1 (centres undefined) [BUPROPION] | Compound NOT metabolized | Compound metabolized | Compound NOT metabolized | Compound NOT metabolized | – | Compound NOT metabolized | – | Compound NOT metabolized | Compound NOT metabolized | Compound NOT metabolized | Compound metabolized | Compound NOT metabolized | Compound NOT metabolized | – | Compound NOT metabolized | Compound NOT metabolized | Compound metabolized | Compound NOT metabolized | Compound NOT metabolized | –
CN1C[C@H](C(=O)N[C@]2(C)O[C@@]3(O)[C@@H]4CCCN4C(=O)[C@H](Cc4ccccc4)N3C2=O)C=C2c3cccc4[nH]cc(c34)C[C@H]21.CN1C[C@H](C(=O)N[C@]2(C)O[C@@]3(O)[C@@H]4CCCN4C(=O)[C@H](Cc4ccccc4)N3C2=O)C=C2c3cccc4[nH]cc(c34)C[C@H]21.O=C(O)C(O)C(O)C(=O)O [ERGOTAMINE TARTRATE] | Compound metabolized | Compound metabolized | Compound NOT metabolized | Compound metabolized | Compound NOT metabolized | Compound metabolized | Compound metabolized | Compound metabolized | Compound metabolized | – | Compound metabolized | Compound NOT metabolized | Compound metabolized | Compound metabolized | Compound metabolized | Compound metabolized | Compound metabolized | Compound metabolized | Compound NOT metabolized | –
CCCc1nc(C(C)(C)O)c(C(=O)OCc2oc(=O)oc2C)n1Cc1ccc(-c2ccccc2-c2nnn[nH]2)cc1 [OLMESARTAN MEDOXOMIL] | Compound metabolized | – | – | Compound metabolized | Compound metabolized | Compound metabolized | Compound metabolized | – | – | – | Compound metabolized | – | Compound metabolized | – | – | Compound metabolized | Compound metabolized | Compound metabolized | Compound metabolized | Compound metabolized
Cc1nc2n(c(=O)c1CCN1CCC(c3noc4cc(F)ccc34)CC1)CCCC2O (centres undefined) [PALIPERIDONE] | Compound metabolized | Compound metabolized | – | Compound metabolized | – | Compound metabolized | Compound metabolized | Compound metabolized | Compound NOT metabolized | Compound metabolized | Compound NOT metabolized | Compound metabolized | Compound NOT metabolized | Compound metabolized | Compound metabolized | Compound metabolized | Compound metabolized | Compound metabolized | Compound NOT metabolized | –
CC(=O)SCC(Cc1ccccc1)C(=O)NCC(=O)OCc1ccccc1 (centres undefined) [RACECADOTRIL] | Compound metabolized | – | – | Compound metabolized | Compound metabolized | Compound metabolized | Compound NOT metabolized | – | Compound metabolized | – | Compound metabolized | – | Compound metabolized | Compound NOT metabolized | Compound NOT metabolized | Compound metabolized | Compound metabolized | – | Compound NOT metabolized | –
